Experimental data as given in patent US5109003A, “Method for the treatment of peptic ulcer disease” (Hoechst Japan Limited, priority 1989, dated 1992).
Read-outs that look alike come from different tables or passages of the source.

Key:
[1] = tested on: stress-induced gastric ulcer; assay: Protective effect on gastric ulcer induced by restraint plus water-immersion stress in rats; assay type: in vivo, rat (male Sprague-Dawley); conditions: for Ulcer index / inhibition in vivo at 10 mg/kg: 10 mg/kg p.o.; for Ulcer index: mean ± S.E.; for inhibition in vivo at 10 mg/kg: Rattus norvegicus, po
Protocol: 1.1. Protective Effect of Gastric Ulcer Induced by Restraint Plus Water-immersion Stress in Rats
Male Sprague-Dawley rats weighing 250-300 g were used in groups of 5-35. The animals were given the compounds by the oral route after fasting overnight. Immediately, under light ether anesthesia they were placed in a restraint box and immersed in water at 23° C. for 6 or 7 hours. Then the animals were sacrificed, and their stomachs were isolated, inflated with 8 ml of 1% formalin for 10 minutes, opened along the greater curvature, and examined for the presence of gastric erosions. The longest axis of each erosion induced on the glandular section of the stomach was measured, and the sum of the lengths was defined as an ulcer index.

[2] = in vivo; conditions: mouse, mice
From the text: The intravenous or intraperitoneal LD50 values of the compounds of this invention and the reference compound (propentofylline) for mice are shown in Table 4.

[3] = tested on: ethanol-induced gastric ulcer; assay: Protective effect on ethanol-induced gastric ulcer in rats; assay type: in vivo, rat (male Sprague-Dawley); conditions: 10 mg/kg p.o.; for Ulcer index: mean ± S.E.; for inhibition in vivo at 10 mg/kg: Rattus norvegicus, po, 1 h
Protocol: 1.2. Protective Effect on Ethanol-induced Gastric Ulcer in Rats
Male Sprague-Dawley rats weighing 300-400 g were used in groups of 4-36. After fasting overnight, the animals were given orally the compounds. Thirty minutes later they received absolute ethanol (1 ml/body) orally and were sacrificed after 60 minutes. The stomach was removed and examined for erosions. The ulcer index was obtained in the same way as under 1.1.

[4] = in vivo; conditions: mouse, mice, oral, read-out: oral LC50
[5] = tested on: peptic ulcer; conditions: Ter. Arkh. 57, 52-55, 1985; JP Laid-Open 225317/88; cited from earlier work
[6] = control distilled water (26.0 ± 2.2 mm)
[7] = iv, i.v., read-out: LD50 (intravenous)
[8] = control distilled water (93.1 ± 8.9 mm)
[9] = control 10% EtOH (32.9 ± 3.3 mm)
[10] = ip, i.p., read-out: LD50 (intraperitoneal)
[11] = control 10% EtOH (78.9 ± 8.5 mm)

| Structure (SMILES) | Ulcer index [1, 6] [mm] | inhibition in vivo at 10 mg/kg ([1]; vs. control distilled water) [%] | LD50 [2, 7] [mg/kg] | Ulcer index [3, 8] [mm] | inhibition in vivo at 10 mg/kg ([3]; vs. control distilled water) [%] | further results |
| --- | --- | --- | --- | --- | --- | --- |
| CCCn1cnc2c1c(=O)n(CCCCC(C)(C)O)c(=O)n2CC [Compound 1] | 8.7 ± 1.6 | 66.5 | 100 to 200 | 12.0 ± 6.9 | 87.1 | – |
| CCn1c(=O)n(CCCCC(C)(C)O)c(=O)c2c1ncn2C [Compound 2] | 6.5 ± 1.6 | 75 | > 200 | 23.5 ± 7.0 | 74.8 | times more effective than propentofylline in improving stress-induced gastric ulcers ([1]; stress-induced gastric ulcers): 2.5 times |
| CCCn1cnc2c1c(=O)n(CCCC(C)(C)O)c(=O)n2CC [Compound 3] | 12.8 ± 2.5 | 50.8 | > 200 | – | – | – |
| CCn1c(=O)n(CCCCCC(C)(C)O)c(=O)c2c1ncn2C [Compound 4] | 10.6 ± 1.8 | 59.2 | 100 to 200 | 21.2 ± 8.4 | 77.2 | – |
| Cn1c(=O)n(CCCCC(C)(C)O)c(=O)c2[nH]cnc21 [Compound 5] | 7.5 ± 2.0 | 71.2 | > 200 | – | – | LD50 [4]: > 2500 mg/kg |
| C=CCCn1cnc2c1c(=O)n(CCCCC(C)(C)O)c(=O)n2C [Compound 6] | – | – | – | – | – | Ulcer index [1, 9]: 17.4 ± 4.5 mm; inhibition in vivo at 10 mg/kg ([1]; vs. control 10% EtOH): 47.1%; LD50 [2, 10]: 150 to 300 mg/kg |
| Cn1cnc2c1c(=O)n(CCCCC(C)(C)O)c(=O)n2C [Compound 7] | 15.8 ± 4.4 | 39.2 | > 200 | – | – | – |
| CCCn1c(=O)c2c(ncn2CCCCC(C)(C)O)n(C)c1=O [Compound 8] | 12.1 ± 2.9 | 53.5 | 100 to 200 | – | – | – |
| Cn1c(=O)n(CCCCC(C)(C)O)c(=O)c2c1ncn2CCC(O)CO (stereo not drawn) [Compound 9] | 17.8 ± 3.3 | 31.5 | > 100 | – | – | – |
| CCOCCn1c(=O)c2c(ncn2CCCCC(C)(C)O)n(C)c1=O [Compound 10] | 17.8 ± 3.3 | 31.5 | > 200 | – | – | – |
| CCCn1cnc2c1c(=O)n(CCCCCC(C)(C)O)c(=O)n2C [Compound 11] | 16.0 ± 3.8 | 38.5 | – | – | – | LD50 [2, 10]: 150 to 300 mg/kg |
| CCCn1cnc2c1c(=O)n(CCCC(C)(O)CC)c(=O)n2C (stereo not drawn) [Compound 12] | – | – | – | 26.1 ± 10.8 | 72 | LD50 [2, 10]: 300 to 600 mg/kg |
| CCn1cnc2c1c(=O)n(CCCCCC(C)(C)O)c(=O)n2CC [Compound 13, 3,7-diethyl-1-(6-hydroxy-6-methylheptyl)-xanthine] | 5.0 ± 1.0 | 80.8 | > 200 | 15.7 ± 9.4 | 83.1 | – |
| CCCn1cnc2c1c(=O)n(CCCCCC(C)(C)O)c(=O)n2CC [Compound 14, 3-Ethyl-1-(6-hydroxy-6-methylheptyl)-7-propylxanthine] | – | – | > 200 | – | – | Ulcer index [1, 9]: 4.8 ± 1.7 mm; inhibition in vivo at 10 mg/kg ([1]; vs. control 10% EtOH): 85.4%; Ulcer index [3, 11]: 3.7 ± 1.1 mm; inhibition in vivo at 10 mg/kg ([3]; listed under control 10% EtOH): 95.3% |
| CCn1c(=O)n(CCCCCC(C)(C)O)c(=O)c2c1ncn2C(C)C [Compound 15, 3-Ethyl-1-(6-hydroxy-6-methylheptyl)-7-isopropylxanthine] | – | – | – | – | – | Ulcer index [1, 9]: 6.6 ± 1.6 mm; inhibition in vivo at 10 mg/kg ([1]; vs. control 10% EtOH): 79.9%; LD50 [2, 10]: > 600 mg/kg; Ulcer index [3, 11]: 4.2 ± 2.2 mm; inhibition in vivo at 10 mg/kg ([3]; listed under control 10% EtOH): 94.7% |
| CCn1cnc2c1c(=O)n(CCCCC(C)(C)O)c(=O)n2CC [Compound 16, 3,7-Diethyl-1-(5-hydroxy-5-methylhexyl)-xanthine] | 6.8 ± 1.6 | 73.8 | > 200 | 17.0 ± 7.1 | 81.7 | – |
| CCCCn1cnc2c1c(=O)n(CCCCC(C)(C)O)c(=O)n2CC [Compound 17, 7-Butyl-3-ethyl-1-(5-hydroxy-5-methylhexyl)-xanthine] | – | – | – | – | – | Ulcer index [1, 9]: 12.5 ± 3.3 mm; inhibition in vivo at 10 mg/kg ([1]; vs. control 10% EtOH): 62%; LD50 [2, 10]: > 600 mg/kg; Ulcer index [3, 11]: 13.0 ± 8.3 mm; inhibition in vivo at 10 mg/kg ([3]; listed under control 10% EtOH): 83.5% |
| CCOCn1cnc2c1c(=O)n(CCCCC(C)(C)O)c(=O)n2CC [Compound 18] | 6.9 ± 2.1 | 73.5 | > 200 | 16.8 ± 7.1 | 82 | – |
| C=CCn1cnc2c1c(=O)n(CCCCC(C)(C)O)c(=O)n2CC [Compound 19, 7-Allyl-3-ethyl-1-(5-hydroxy-5-methylhexyl)-xanthine] | 10.2 ± 2.4 | 60.8 | > 100 | 5.2 ± 2.0 | 94.4 | – |
| C=CCn1cnc2c1c(=O)n(CCCCC(C)(C)O)c(=O)n2C [Compound 20, 7-Allyl-1-(5-hydroxy-5-methylhexyl)-3-methylxanthine] | 10.6 ± 3.0 | 59.2 | > 100 | – | – | – |
| C=CCCn1c(=O)c2c(ncn2CCCCC(C)(C)O)n(CC)c1=O [Compound 21, 1-(3-Butenyl)-3-ethyl-7-(5-hydroxy-5-methylhexyl)-3-xanthine] | – | – | – | 19.2 ± 9.2 | 79.4 | – |
| CCCn1cnc2c1c(=O)n(CCCCC(C)=O)c(=O)n2C [Compound 22, 1-(5'-oxohexyl)-3-methyl-7-propyl xanthine, reference compound] | 18.4 ± 3.0 | 29.2 | – | – | – | antiulcer activity (in words, from literature) [5]: superior to that of pentoxifylline; Ulcer index [3, 11]: 34.7 ± 8.4 mm; inhibition in vivo at 10 mg/kg ([3]; listed under control 10% EtOH): 62.7% |
| CC(=O)CCCCn1c(=O)c2c(ncn2C)n(C)c1=O [pentoxifylline] | – | – | – | – | – | antiulcer activity (in words, from literature) [5]: antiulcer effects |
